Seven compounds from patent publication EP0102327A2, “Barbituric acid derivatives as anthelmintica” (CIBA-GEIGY AG, priority 1982, dated 1984) can be followed below.

For assay [1], the system named is Nematoden wie Haemonchus concortus und Trichostrongylus colubriformis. Nature of the assay: Test on sheep infected with nematodes (worm count in the intestine after treatment). Format: in vivo, Schafe. The following applies: nematode-infected sheep, single dose; at each of the doses 20, 10, 5 and 2 mg/kg; necropsy 7-10 days after treatment. The text has this: Beispiel 14: Versuch an mit Nematoden wie Haemonchus concortus und Trichostrongylus colubriformis infizierten Schafen
Der Wirkstoff wird in Form einer Suspension mit einer Magensonde oder durch Pansen-Injektion Schafen verabreicht, die vorher mit Nematoden wie Haemonchus concortus und Trichostrongylus colubriformis künstlich infiziert wurden. Pro Versuch resp. pro Dosis werden 1 bis 3 Tiere verwendet. Jedes Schaf wird mit nur einer einzigen Dosis behandelt.
(§1) Eine erste Evaluierung erfolgt dadurch, dass die Anzahl der vor und nach der Behandlung im Kot der Schafe ausgeschiedenen Wurmeier verglichen werden.
Sieben bis zehn Tage nach der Behandlung werden die Schafe getötet und seziert. Die Auswertung erfolgt durch Auszählung der nach der Behandlung im Darm zurückbleibenden Würmer. Gleichzeitig und gleichartig infizierte aber unbehandelte Schafe dienen als Kontrolle resp. Vergleich.
Schafe, die mit einer Suspension eines Wirkstoffes aus der Tabelle I behandelt werden, zeigen im Vergleich zu unbehandelten, aber infizierten Vergleichsgruppen einen um mindestens 95 i reduzierten Nematodenbefall. Die Wirkungsdosis beträgt 20, 10, 5 und 2 mg/kg. Mit den Verbindungen Nr. 1, 2, 4, 11, 12 und 13 wird bei jeder der Dosen 100 % Wirkung erzielt.

Assay [2] relates to Fasciola hepatica. The experiment in a line: Test on sheep infected with Fasciola hepatica (count of liver flukes in the bile ducts after treatment). Format: in vivo, Schafe. The following applies: artificially infected sheep, single dose of suspension by stomach tube or rumen injection; 30 and 20 mg/kg Körpergewicht; necropsy 3-4 weeks after treatment.
Source text: Beispiel 16: Versuch an mit Fasciola hepatica infizierten Schafen
Der Wirkstoff wird in Form einer Suspension mit einer Magensonde oder durch Pansen-Injektion Schafen verabreicht, die vorher mit Fasciola hepatica künstlich infiziert wurden. Pro Versuch resp. pro Dosis werden 3 Tiere verwendet. Jedes Tier wird mit nur einer einzigen Dosis behandelt.
as §1
Drei bis vier Wochen nach der Behandlung werden die Schafe getötet und seziert. Die Auswertung erfolgt durch das Auszählen der nach der Behandlung in den Gallengängen zurückgebliebenen Leberegel. Gleichzeitig und gleichartig infizierte aber unbehandelte Schafe dienen als Kontrolle resp. Vergleich. Der Unterschied der in den beiden Gruppen festgestellten Anzahl von Leberegeln ergibt den Wirkungsgrad des geprüften Wirkstoffs.
In diesem Versuch zeigen Wirkstoffe aus der Tabelle I bei Dosen von 30 und 20 mg/kg Körpergewicht stets eine mindestens 95%ige Wirksamkeit gegen Fasciola hepatica. Die Verbindungen Nr. 1, 2, 4, 5, 11, 12 und 13 zeigen jeweils vollständige Wirksamkeit (^= Abtötung 100 %).

The structures appear in SMILES notation.

On to `Cc1cc(Oc2ccc(C(F)(F)F)cc2)cc(C)c1NC(=O)C1C(=O)N(C)C(=O)N(C)C1=O` [compound 2], for which the Wirkung in assay [1] was determined as 100%. Moreover, the “Wirksamkeit gegen Fasciola hepatica (Abtötung)” value in assay [2] is reported as 100%.

Compound `Cc1cc(Oc2ccc(C(F)(F)F)cc2)ccc1NC(=O)C1C(=O)N(C)C(=O)N(C)C1=O` [compound 4] showed a Wirkung in assay [1] of 100%. The “Wirksamkeit gegen Fasciola hepatica (Abtötung)” value in assay [2] is listed as 100%.

`Cc1cc(Oc2ccc(C(F)(F)F)cc2)cc(C)c1NC(=O)C1C(=O)N(C)C(=O)N(C2CC2)C1=O` (stereo not shown) [compound 11] showed a Wirkung in assay [1] of 100%. Moreover, the “Wirksamkeit gegen Fasciola hepatica (Abtötung)” value in assay [2] came out at 100%.

With `C=CCN1C(=O)C(C(=O)Nc2c(C)cc(Oc3ccc(C(F)(F)F)cc3)cc2C)C(=O)N(C)C1=O` (stereo not shown) [compound 12], in assay [1], the Wirkung turned out to be 100%. In addition, the “Wirksamkeit gegen Fasciola hepatica (Abtötung)” value in assay [2] amounted to 100%.

On to `C=CCN1C(=O)C(C(=O)Nc2ccc(Oc3ccc(C(F)(F)F)cc3)cc2C)C(=O)N(C)C1=O` (stereo not shown) [compound 5], for which the “Wirksamkeit gegen Fasciola hepatica (Abtötung)” value in assay [2] is 100%.

As to `CC(C)c1cc(Oc2ccc(C(F)(F)F)cc2)ccc1NC(=O)C1C(=O)N(C)C(=O)N(C2CC2)C1=O` (stereo not shown) [compound 13], the Wirkung in assay [1] came to 100%. In assay [2], the “Wirksamkeit gegen Fasciola hepatica (Abtötung)” value is listed as 100%.

In assay [1], `CC(C)c1cc(Oc2ccc(C(F)(F)F)cc2)ccc1NC(=O)C1C(=O)N(C)C(=O)N(C)C1=O` [compound 1] registered a Wirkung of 100%. The “Wirksamkeit gegen Fasciola hepatica (Abtötung)” value in assay [2] is on record as 100%.
